Values of other authors as cited in patent US20040224916A1 (priority 2003, published 2004).
Where two headings read alike, the source gives them in different places.

Columns and labels:
HIV-1 = conditions: in vitro, with agents acting at steps other than reverse transcription, including recombinant soluble CD4, castanospermine, recombinant interferon-α
[1] = dogs and rhesus monkeys

Row | SMILES | antiviral activity in combination (HIV-1) | stability in plasma [1] | effectiveness of S-configuration (at phosphorus) diastereomer relative to R-configuration diastereomer (HIV) [fold] | effectiveness relative to tenofovir against HIV in culture (HIV; as stated in b46) [times] | effectiveness relative to tenofovir against HIV in culture (HIV; as stated in b47) [fold]
1 | Cc1cn([C@H]2C[C@H](N=[N+]=[N-])[C@@H](CO)O2)c(=O)[nH]c1=O [AZT, 3′-azido, 3′-deoxythymidine] | synergistic antiviral activity | – | – | – | –
2 | CC(C)OC(=O)[C@H](C)N[P@](=O)(CO[C@H](C)Cn1cnc2c(N)ncnc21)Oc1ccccc1 [GS-7340, 9-[(R)-2-[[(S)-[[(S)-1-(isopropoxycarbonyl)ethyl]amino]phenoxyphosphinyl]methoxy]propyl]adenine] | – | stable in plasma | 10 | 1000 | 100
